Where a SMILES comes first, the peptide text is derived from it. Bridges are numbered along the chain shown (N, C = ends).
System: Kv2.1
Experiment: microelectrode voltage-clamp, Xenopus laevis oocytes, Kv2.1
Assay type: cell-based
Details: 10 μM, 300-ms depolarization to +20 mV from -90 mV, pH 7.5, 19-23°C, n = 3
Procedure: Briefly, plasmids were linearized, and transcription was carried out according to the standardized protocol. Afterwards, the capped cRNAs that encoded the related ion channels were prepared. To conduct transcription in vitro, firstly, NotL was utilized to linearize plasmids pCI that contained both Kv1.1 (Accession: NM_010595.3) and Kv2.1 (Accession: AF026005.1), whereas SphI was adopted to linearize plasmid PcDNA3 containing Kv1.2 (Accession: NM_012970.3) gene. […] Thereafter, the linearized plasmids were used as the templates to synthesize cRNAs in vitro using the large-scale T7 mMESSAGE mMACHINE transcription kit (Ambion, USA).
A mature female X. laevis was placed on the ice for anesthesia, and then the Xenopus laevis oocytes at stage IV-VI were extracted. Subsequently, those extracted oocytes were treated by collagenase (1 mg/mL) contained within the calcium-depleted ND96 solution (containing 96 mM NaCl, 10 mM HEPES, 1 mM MgCl2, and 2 mM KCl) for defolliculation. […]
Firstly, the effects of JZTX-X on the isoforms of potassium channels (including Kv1.1-1.3, Kv2.1, as well as Kv4.2-4.3) contained within the X. laevis oocytes were investigated through the microelectrode voltage-clamp approach. […] We also determined the effects of JZTX-X on Ito potassium channels in rat DRG neurons; those current amplitudes were inhibited by 54.4±6.8% when 500 nM JZTX-X was applied (Fig. 3K, n = 5).

CC(C)C[C@@H]1NC(=O)[C@H](CCCCN)NC(=O)[C@H](Cc2ccc(O)cc2)NC(=O)[C@@H]2CSSC[C@@H]3NC(=O)[C@H](Cc4ccc(O)cc4)NC(=O)[C@H](Cc4ccccc4)NC(=O)CNC(=O)[C@H](C)NC(=O)[C@H](CSSC[C@H](NC(=O)[C@@H](N)CC(C)C)C(=O)N[C@@H](CO)C(=O)N[C@@H](CCCNC(=N)N)C(=O)N[C@@H](CCC(=O)O)C(=O)NCC(=O)N[C@@H](CCC(=O)O)C(=O)N[C@@H](Cc4ccccc4)C(=O)N2)NC(=O)[C@H](CSSC[C@@H](C(=O)N[C@@H](Cc2ccc(O)cc2)C(=O)N[C@@H](CCCNC(=N)N)C(=O)N[C@@H](CC(N)=O)C(=O)O)NC(=O)[C@H](Cc2c[nH]cn2)NC(=O)[C@H](CC(C)C)NC(=O)[C@H](C(C)C)NC(=O)[C@H](Cc2ccccc2)NC(=O)[C@H](C)NC(=O)[C@H](CCCCN)NC3=O)NC(=O)[C@H](CCCCN)NC(=O)[C@H](CCCNC(=N)N)NC1=O [JZTX-X, Jingzhaotoxin-X] (H-LCSREGEFCYKLRKCCAGFYCKAFVLHCYRN-OH; disulfide 2-16, 9-21, 15-28; N-terminus assumed)
inhibition of Kv2.1 current: less than 5%
